For 9 molecules, IC50 results are on record in patent US9243001B2, “Substituted benzene compounds” (Epizyme, Inc., priority 2013, dated 2016).

Each structure is given as a SMILES string.

The target in this experiment is T1, wild-type EZH2 (PRC2 enzyme) (Homo sapiens, UniProt Q15910).
T1 construct: made in house; host or cells: Spodoptera frugiperda (sf9) cells, baculovirus
T1 sequence (Q15910 1-751 isoform Q15910-2): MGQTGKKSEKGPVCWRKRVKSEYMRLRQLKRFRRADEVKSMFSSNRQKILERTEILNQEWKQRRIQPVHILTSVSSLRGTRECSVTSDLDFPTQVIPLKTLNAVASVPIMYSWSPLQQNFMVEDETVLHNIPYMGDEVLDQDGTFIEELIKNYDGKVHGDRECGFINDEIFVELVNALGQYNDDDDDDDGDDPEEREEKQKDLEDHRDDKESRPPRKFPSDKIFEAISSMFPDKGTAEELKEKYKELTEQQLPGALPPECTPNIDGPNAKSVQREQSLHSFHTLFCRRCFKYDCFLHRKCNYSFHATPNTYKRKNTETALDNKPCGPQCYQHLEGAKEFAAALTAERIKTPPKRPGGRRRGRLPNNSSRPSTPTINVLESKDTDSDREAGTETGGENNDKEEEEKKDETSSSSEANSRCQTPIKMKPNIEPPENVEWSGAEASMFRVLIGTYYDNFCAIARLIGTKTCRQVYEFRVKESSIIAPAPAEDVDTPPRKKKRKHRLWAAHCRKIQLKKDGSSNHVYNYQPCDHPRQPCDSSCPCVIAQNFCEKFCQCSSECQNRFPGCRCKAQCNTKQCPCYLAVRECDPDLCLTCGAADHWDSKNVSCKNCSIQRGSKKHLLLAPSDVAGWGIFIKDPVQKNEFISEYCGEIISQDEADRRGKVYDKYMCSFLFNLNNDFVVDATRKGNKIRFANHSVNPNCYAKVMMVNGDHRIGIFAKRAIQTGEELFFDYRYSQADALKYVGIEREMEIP
T1 sequence (O75530 whole entry partner): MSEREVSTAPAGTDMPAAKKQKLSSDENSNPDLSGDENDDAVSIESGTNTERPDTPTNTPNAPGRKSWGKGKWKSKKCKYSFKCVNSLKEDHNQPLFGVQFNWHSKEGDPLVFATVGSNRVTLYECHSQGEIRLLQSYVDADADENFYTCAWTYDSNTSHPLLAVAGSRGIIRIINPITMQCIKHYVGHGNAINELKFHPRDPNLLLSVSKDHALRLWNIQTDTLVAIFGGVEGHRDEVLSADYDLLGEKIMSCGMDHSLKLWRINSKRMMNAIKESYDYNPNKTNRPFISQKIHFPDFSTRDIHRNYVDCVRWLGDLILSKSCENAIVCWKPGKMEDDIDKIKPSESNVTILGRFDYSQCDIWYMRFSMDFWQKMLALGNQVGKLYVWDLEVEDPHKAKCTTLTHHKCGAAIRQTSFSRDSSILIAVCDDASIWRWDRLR
T1 sequence (Q15022 whole entry partner): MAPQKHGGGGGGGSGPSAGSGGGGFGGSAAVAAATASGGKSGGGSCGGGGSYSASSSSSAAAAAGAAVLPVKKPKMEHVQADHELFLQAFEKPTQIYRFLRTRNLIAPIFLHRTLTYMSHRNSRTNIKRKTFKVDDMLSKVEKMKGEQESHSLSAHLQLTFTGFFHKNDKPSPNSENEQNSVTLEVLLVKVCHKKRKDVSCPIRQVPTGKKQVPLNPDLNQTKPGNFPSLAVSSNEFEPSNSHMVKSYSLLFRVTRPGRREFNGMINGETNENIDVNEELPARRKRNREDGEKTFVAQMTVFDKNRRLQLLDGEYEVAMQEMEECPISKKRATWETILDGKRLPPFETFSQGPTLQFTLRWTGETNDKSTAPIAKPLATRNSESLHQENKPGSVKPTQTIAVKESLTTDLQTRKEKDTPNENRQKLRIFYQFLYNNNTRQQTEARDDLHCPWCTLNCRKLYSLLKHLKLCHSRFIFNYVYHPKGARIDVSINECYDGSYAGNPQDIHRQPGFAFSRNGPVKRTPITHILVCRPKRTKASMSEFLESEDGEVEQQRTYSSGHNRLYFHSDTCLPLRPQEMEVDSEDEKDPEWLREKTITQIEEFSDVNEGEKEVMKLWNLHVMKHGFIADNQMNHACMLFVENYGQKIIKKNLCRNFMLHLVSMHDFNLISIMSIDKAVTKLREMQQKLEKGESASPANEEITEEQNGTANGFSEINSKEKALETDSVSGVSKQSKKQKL
T1 sequence (Q09028 whole entry partner): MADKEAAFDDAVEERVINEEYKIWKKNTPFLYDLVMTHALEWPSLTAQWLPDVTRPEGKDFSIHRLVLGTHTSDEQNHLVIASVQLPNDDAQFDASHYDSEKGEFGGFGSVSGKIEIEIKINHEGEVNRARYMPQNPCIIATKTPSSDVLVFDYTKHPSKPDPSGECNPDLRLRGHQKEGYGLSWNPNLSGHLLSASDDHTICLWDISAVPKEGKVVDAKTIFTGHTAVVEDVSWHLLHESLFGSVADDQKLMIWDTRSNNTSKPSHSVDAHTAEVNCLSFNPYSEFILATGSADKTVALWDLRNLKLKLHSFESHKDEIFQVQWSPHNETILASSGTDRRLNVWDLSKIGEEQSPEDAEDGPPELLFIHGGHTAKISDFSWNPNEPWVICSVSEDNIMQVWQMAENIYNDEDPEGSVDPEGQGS
As to the kind of experiment: PRC2 enzyme assay on peptide substrates (wild-type EZH2). Type of experiment: biochemical. To be noted: wild-type PRC2 enzyme 4 nM, H3K27me0 peptide substrate, 3H-SAM Flashplate; read-out: WT EZH2 IC50. An excerpt: General Materials. S-adenosylmethionine (SAM), S-adenosylhomocyteine (SAH), bicine, KCl, Tween20, dimethylsulfoxide (DMSO) and bovine skin gelatin (BSG) were purchased from Sigma-Aldrich at the highest level of purity possible. Dithiothreitol (DTT) was purchased from EMD Millipore. ^3H-SAM was purchased from American Radiolabeled Chemicals with a specific activity of 80 Ci/mmol. 384-well streptavidin Flashplates were purchased from PerkinElmer.
Substrates. Peptides representative of human histone H3 residues 21- 44 containing either an unmodified lysine 27 (H3K27me0) or dimethylated lysine 27 (H3K27me2) are synthesized with a C-terminal G(K-biotin) linker-affinity tag motif and a C-terminal amide cap by 21st Century Biochemicals. The peptides are high-performance liquid chromatography (HPLC) purified to greater than 95% purity and confirmed by liquid chromatography mass spectrometry (LC-MS). The sequences are listed below.
Recombinant PRC2 Enzymes. Human PRC2 enzymes were purified as 4-component enzyme complexes co-expressed in Spodoptera frugiperda (sf9) cells using a baculovirus expression system. The subunits expressed were wild-type EZH2 (NM_004456) or EZH2 Y641F, N, H, S or C mutants generated from the wild-type EZH2 construct, EED (NM_003797), Suz12 (NM_015355) and RbAp48 (NM_005610). The EED subunit contained an N-terminal FLAG tag that was used to purify the entire 4-component complex from sf9 cell lysates. The purity of the complexes met or exceeded 95% as determined by SDS-PAGE and Agilent Bioanalyzer analysis. Concentrations of enzyme stock concentrations (generally 0.3-1.0 mg/mL) was determined using a Bradford assay against a bovine serum albumin (BSA) standard.
General Procedure for PRC2 Enzyme Assays on Peptide Substrates. The assays were all performed in a buffer consisting of 20 mM bicine (pH=7.6), 0.5 mM DTT, 0.005% BSG and 0.002% Tween20, prepared on the day of use. Compounds in 100% DMSO (1 μL) were spotted into polypropylene 384-well V-bottom plates (Greiner) using a Platemate 2×3 outfitted with a 384-channel pipet head (Thermo). DMSO (1 μL) was added to columns 11, 12, 23, 24, rows A -H for the maximum signal control, and SAH, a known product and inhibitor of PRC2 (1 μL) was added to columns 11,12, 23, 24, rows I -P for the minimum signal control. A cocktail (40 μL) containing the wild-type PRC2 enzyme and H3K27me0 peptide or any of the Y641 mutant enzymes and H3K27me2 peptide was added by Multidrop Combi (Thermo). The compounds were allowed to incubate with PRC2 for 30 min at 25° C., then a cocktail (10 μL) containing a mixture of non-radioactive and ^3H-SAM was added to initiate the reaction (final volume=51 μL). In all cases, the final concentrations were as follows: wild-type or mutant PRC2 enzyme was 4 nM, SAH in the minimum signal control wells was 1 mM and the DMSO concentration was 1%. The assays were stopped by the addition of non-radioactive SAM (10 μL) to a final concentration of 600 μM, which dilutes the ^3H-SAM to a level where its incorporation into the peptide substrate is no longer detectable. 50 μL of the reaction in the 384-well polypropylene plate was then transferred to a 384-well Flashplate and the biotinylated peptides were allowed to bind to the streptavidin surface for at least 1 h before being washed three times with 0.1% Tween20 in a Biotek ELx405 plate washer. The plates were then read in a PerkinElmer TopCount platereader to measure the quantity of ^3H-labeled peptide bound to the Flashplate surface, measured as disintegrations per minute (dpm) or alternatively, referred to as counts per minute (cpm).
Where dpm=disintegrations per minute, cmpd=signal in assay well, and min and max are the respective minimum and maximum signal controls.
Where top and bottom are the normally allowed to float, but may be fixed at 100 or 0 respectively in a 3-parameter fit. The Hill Coefficient normally allowed to float but may also be fixed at 1 in a 3-parameter fit. […]
Turning to `CCN(c1cc(Cl)cc(C(=O)NCc2nccn2C)c1C)C1CCOCC1` [Compound 23, 5-chloro-3-(ethyl(tetrahydro-2H-pyran-4-yl)amino)-2-methyl-N-((1-methyl-1H-imidazol-2-yl)methyl)benzamide], the IC50 was 23.7 µM. The result for `CCN(c1cc(Cl)cc(C(=O)NCc2nccs2)c1C)C1CCOCC1` [Compound 24, 5-chloro-3-(ethyl(tetrahydro-2H-pyran-4-yl)amino)-2-methyl-N-(thiazol-2-ylmethyl)benzamide] reads above 50 µM. The value for `CCN(c1cc(Cl)cc(C(=O)NCc2cn(C)cn2)c1C)C1CCOCC1` [Compound 25, 5-chloro-3-(ethyl(tetrahydro-2H-pyran-4-yl)amino)-2-methyl-N-((1-methyl-1H-imidazol-4-yl)methyl)benzamide] was 7.82 µM; that for `CCN(c1cc(Cl)cc(C(=O)NCc2cn3ccsc3n2)c1C)C1CCOCC1` [Compound 26, 5-chloro-3-(ethyl(tetrahydro-2H-pyran-4-yl)amino)-N-(imidazo[2,1-b]thiazol-6-ylmethyl)-2-methylbenzamide] was above 50 µM. The value for `CCN(c1cc(Cl)cc(C(=O)NCc2cnn(C)c2C)c1C)C1CCOCC1` [Compound 27, 5-chloro-N-((1,5-dimethyl-1H-pyrazol-4-yl)methyl)-3-(ethyl(tetrahydro-2H-pyran-4-yl)amino)-2-methylbenzamide] was above 50 µM; that for `CCN(c1cc(Cl)cc(C(=O)NCc2ccn(C)n2)c1C)C1CCOCC1` [Compound 28, 5-chloro-3-(ethyl(tetrahydro-2H-pyran-4-yl)amino)-2-methyl-N-((1-methyl-1H-pyrazol-3-yl)methyl)benzamide] was 14.8 µM; that for `CCN(c1cc(Cl)cc(C(=O)NCc2cc(C)on2)c1C)C1CCOCC1` [Compound 29, 5-chloro-3-(ethyl(tetrahydro-2H-pyran-4-yl)amino)-2-methyl-N-((5-methylisoxazol-3-yl)methyl)benzamide] was above 50 µM. For `CCN(c1cc(Cl)cc(C(=O)NCc2c[nH]cn2)c1C)C1CCOCC1` [Compound 30, N-((1H-imidazol-4-yl)methyl)-5-chloro-3-(ethyl(tetrahydro-2H-pyran-4-yl)amino)-2-methylbenzamide], the IC50 is 0.32 µM.

With `CCN(c1cc(Cl)cc(C(=O)NCc2cc(C)nn2C)c1C)C1CCOCC1` [Compound 31, 5-chloro-N-((1,3-dimethyl-1H-pyrazol-5-yl)methyl)-3-(ethyl(tetrahydro-2H-pyran-4-yl)amino)-2-methylbenzamide], the IC50 was above 50 µM.

For orientation: IC50 means the concentration that inhibits the measured activity by half.
